{"source": "patent EP3797781A1", "about": "“USE OF EC-7072 AND SYNERGIC COMPOSITIONS THEREOF IN TREATMENT OF CHRONIC LYMPHOCYTIC LEUKEMIA” (priority 2019, dated 2021)", "key": {"MEC-1 cells": {"tested_on": "MEC-1 cells", "test": "Immunoblot of phosphorylated and total STAT3 in MEC-1 cells", "assay_type": "cell-based", "conditions": "200 nM, 0-, 3-, 8- and 12-hour time points; reduction of p-STAT3"}, "active caspase-3": {"tested_on": "active caspase-3", "test": "Caspase-3 activity assay in leukemia cells (flow cytometry)", "assay_type": "cell-based, human", "conditions": "0 - 400 nM, 24 hours; leukemia cells in PBMCs from patients with CLL (n = 6)", "method": "Intracellular levels of activated caspase-3 were measured by using CaspGLOW™ Fluorescein Active Caspase-3 Staining Kit (Invitrogen). In brief, EC-7072 (200 nM) or DMSO-treated PBMCs from patients with CLL were incubated with FITC-DEVD-fmk for 30 minutes at 37 °c and fluorescence was next analyzed by flow cytometry in leukemia cells. For some experiments, cells were pretreated for 2 hours with the indicated doses of the broad-spectrum caspase inhibitor Z-VAD-fmk.\nThe induction of caspase-dependent apoptosis on primary CLL cells by EC-7072 was assessed by: • (i) incubating PBMCs isolated from patients with CLL (n = 6) following treatment with increasing concentrations of EC-7072 (0 - 400 nM) for 24 hours. Apoptosis of leukemia cells was evaluated by cytofluorometric assessment of Annexin V/PI staining to obtain percentages of apoptotic [Annexin V^+ PI^-] and dead [PI^+] cells (Figure 3A); • (ii) incubating PBMCs and T cells isolated from patients with CLL (n = 3) following treatment with EC-7072 (200 nM) for 24 hours. T cell apoptosis was evaluated by cytofluorometric assessment of Annexin V/PI staining to obtain percentages of viable [Annexin V-], apoptotic [Annexin V^+ PI^-] and dead [PI^+] cells (Figure 3B); • (iii) incubating PBMCs isolated from patients with CLL (n = 6) following treatment with EC-7072 (0 - 400 nM) for 24 hours. […]"}, "NK cells (CD3^-CD56^+)": {"tested_on": "NK cells (CD3^-CD56^+)", "test": "NK cell numbers, viability and apoptosis in PBMCs (flow cytometry, DiOC6(3)/PI staining)", "assay_type": "cell-based, human", "method": "To evaluate absolute cell numbers, an equal volume of PKH26 reference microbeads (Sigma-Aldrich) was added to each sample after staining for immune subset identification. Microbeads (5x10^3) were acquired by flow cytometry and absolute numbers of each immune population within the sample were calculated. Normalized percentage values were calculated considering the control (DMSO)-treated cells as 100%.\nCell viability and apoptosis were evaluated by double-staining with the mitochondrial inner transmembrane potential (ΔΨm)-sensitive dye DiOC6(3) (3,3'-dihexyloxacarbocyanine iodide; Sigma-Aldrich) and the exclusion dye propidium iodide (PI; Immunostep), allowing identification of apoptotic [DiOC6(3)^low PI^-] and dead [PI^+] cells as per Proc. Natl. Acad. Sci. U.S.A. (2014) 111(8):3020-3025 and Methods Mol. Biol. (2016) 1419:1-16. Briefly, PBMCs were resuspended in culture medium containing 20 nM DiOC6(3) and incubated for 30 minutes at 37 °C. Then, PI (1 µg/mL) was added and cells were further incubated for 10 minutes at room temperature (RT). Cells were analyzed by flow cytometry considering DiOC6(3)^+PI^- cells as viable. In some experiments, apoptosis was evaluated by staining with Annexin V/PI. Thus, PBMCs were incubated in Annexin V binding buffer containing 5 µg/mL Annexin V-FITC (Biolegend) for 15 minutes at RT and PI (1 µg/mL) was subsequently added. Data were normalized to the untreated control as a percentage. Only samples with at least 60% of viable cells (DiOC6(3)^+; Annexin V^-) in the control (DMSO) condition were employed in this study.\nThe effect of EC-7072 toward healthy immune subsets, T lymphocytes and natural killer (NK) cells, which are chronically exposed to leukemia cells in the peripheral blood of patients with CLL was assessed by: • (i) incubating PBMCs isolated from patients with CLL (n = 10) following treatment with increasing concentrations of EC-7072 (0 - 400 nM) for 24 hours. Numbers of T cells (CD3^+CD56^-) (Figure 2A) and NK cells (CD3^-CD56^+) (Figure 2B) were evaluated by flow cytometry and normalized to their respective control (DMSO) condition for each individual patient to obtain percentage of relative number of T cells and NK cells, respectively; • (ii) incubating PBMCs isolated from patients with CLL (n = 6 - 10) following treatment with increasing concentrations of EC-7072 (0 - 400 nM) for 24 hours. Viability of immune subsets (leukemia cells, T cells and NK cells) was determined by cytofluorometric assessment of DiOC6(3)/PI staining and normalized to their respective control (DMSO) condition for each individual patient to obtain percentage of viable [DiOC6(3)^+] cells (Figures 2C and 2D); • (iii) incubating PBMCs isolated from patients with CLL (n = 11) following treatment with DMSO or EC-7072 (200 nM) for 24 hours. Numbers of CD4^+ cells (Figure 2E) and CD8^+ T cells (Figure 2F) were evaluated by flow cytometry and normalized to their respective control (DMSO) condition for each individual experiment; • (iv) incubating PBMCs isolated from healthy donors (n = 15) following treatment with EC-7072 (200 nM) for 24 hours. […]"}}}
{"smiles": "CO[C@@H]([C@@H]1Cc2cc3cc(O[C@H]4C[C@@H](O[C@H]5C[C@@H](O)[C@H](O)[C@@H](C)O5)[C@H](O)[C@@H](C)O4)c(C)c(O)c3c(O)c2C(=O)[C@H]1O[C@H]1C[C@@H](O[C@H]2C[C@@H](O[C@H]3C[C@](C)(O)[C@H](O)[C@@H](C)O3)[C@@H](O)[C@@H](C)O2)[C@H](O)[C@@H](C)O1)[C@@H](O)C(C)=O", "note": "[EC-7072, mithramycin SK]", "values": [{"measurement": "levels of p-STAT3 in MEC-1", "setting": "MEC-1 cells", "value": "further confirmed"}, {"measurement": "intracellular levels of active caspase-3", "setting": "active caspase-3", "value": "dose-dependent increase"}, {"measurement": "ratio of apoptosis in NK cells relative to NK cell death", "setting": "NK cells (CD3^-CD56^+); 200 nM, 24 hours, PBMCs from healthy donors (n = 4), Figure 2R", "value": "far lower ratio of apoptosis in NK cells relative to NK cell death than does EC-7073"}, {"measurement": "viability of NK cells, comparison of mithralogs", "setting": "NK cells (CD3^-CD56^+); 200 nM, 24 hours, PBMCs from healthy donors (n = 10), Figure 2O", "value": "not exhibit toxicity"}, {"measurement": "cell numbers and viability of NK cells", "setting": "NK cells (CD3^-CD56^+); 200 nM, 24 hours, PBMCs from healthy donors (n = 15), compared with PBMCs from patients with CLL", "value": "comparable effects"}, {"measurement": "NK cell survival", "setting": "NK cells (CD3^-CD56^+); 200 nM, 24 hours, PBMCs from patients with CLL", "value": "only slightly altered"}, {"measurement": "toxicity against NK cells compared with fludarabine", "setting": "NK cells (CD3^-CD56^+); EC-7072 200 nM 24 hours vs fludarabine 10 µM 24 hours, PBMCs from patients with CLL (n = 6 - 8), Figure 4F", "value": "significantly less toxic than fludarabine"}, {"measurement": "toxicity against NK cells compared with leukemia cells", "setting": "NK cells (CD3^-CD56^+); high doses (400 nM), 24 hours, PBMCs from patients with CLL", "value": "significantly less toxic against NK cells than leukemia cells"}]}
